Four compounds from patent publication US20240307299A1, “SELF-EMULSIFYING DRUG DELIVERY (SEDDS) FOR OPHTHALMIC DRUG DELIVERY” (priority 2015, published 2024) can be followed below.

Read-outs that look alike come from different tables or passages of the source.

This data set deals with New Zealand White female rabbits. It counts as in vivo. Here is the method: The ocular tolerability of the various pharmaceutical-grade excipients used in our formulations was evaluated in vivo using New Zealand White female rabbits. A total of ten test groups with three rabbits each were used to test the materials listed below in Table 16. Dosing in each group was done by instilling one drop of material at the lowest concentration into the left eye of the first rabbit. If not tolerated, dosing was stopped. If tolerated, one drop of the same concentration was instilled into the left eye of the second rabbit and then again for the third rabbit. If a concentration was tolerated by 3 rabbits, dosing continued in the same pattern with the next higher concentration, if applicable.
Sample compositions, specifically, the vehicle used to dilute the materials tested, are listed in the next table (Table 17).

Turning to PEG 400, under “rabbit, in vivo”, the “Concentration at which the not tolerated finding was seen” value is 20%; the “Maximum Tolerated Concentration” value was determined as 10 % w/w; the “Reason Not Tolerated: Ocular discomfort (score)” value is reported as “+3, 1 Ocular discomfort seen at”.

As to `CC(O)CO` (centres unmarked) [Propylene Glycol], under “lowest concentration not tolerated”, the “Concentration at which the not tolerated finding was seen” value was 10%. For the same compound, where the note is “topical ocular, rabbits”, the “Concentration not tolerated” value is reported as 10%.

As for “polyoxyethylene sorbitan monooleate [PS80]”, under “rabbit, in vivo”, the “Concentration at which the not tolerated finding was seen” value was found to be 40% and the “Maximum Tolerated Concentration” value is given as 30 % w/w.

Regarding PEG (polyethylene glycol) 300 [PEG 300], where the note is “rabbit, in vivo”, the “Concentration at which the not tolerated finding was seen” value is listed as 10%.
